In PubChem BioAssay (NCI):
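Five concentrations, 48 hours, 96-well plates. TGI is the concentration that stops growth completely.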

How the values were obtained:
Experiment in all cases: NCI-60 cell line screen, 48 h
BT-549 breast = system: BT-549 breast
CCRF-CEM leukemia = system: CCRF-CEM leukemia
HCT-15 colon = system: HCT-15 colon
HT29 colon = system: HT29 colon
MDA-MB-231 breast = system: MDA-MB-231 breast
MOLT-4 leukemia = system: MOLT-4 leukemia
OVCAR-4 ovarian = system: OVCAR-4 ovarian
OVCAR-5 ovarian = system: OVCAR-5 ovarian
PC-3 prostate = system: PC-3 prostate
SF-268 CNS = system: SF-268 CNS
SK-MEL-5 melanoma = system: SK-MEL-5 melanoma
SNB-19 CNS = system: SNB-19 CNS
TK-10 renal = system: TK-10 renal
U251 CNS = system: U251 CNS
COLO 205 colon = system: COLO 205 colon
MDA-MB-435 = system: MDA-MB-435
NCI/ADR-RES ovarian = system: NCI/ADR-RES ovarian
SK-MEL-2 melanoma = system: SK-MEL-2 melanoma
SK-OV-3 ovarian = system: SK-OV-3 ovarian

Compound	TGI (BT-549 breast) [µM]	TGI (CCRF-CEM leukemia) [µM]	TGI (HCT-15 colon) [µM]	TGI (HT29 colon) [µM]	TGI (MDA-MB-231 breast) [µM]	TGI (MOLT-4 leukemia) [µM]	TGI (OVCAR-4 ovarian) [µM]	TGI (OVCAR-5 ovarian) [µM]	TGI (PC-3 prostate) [µM]	TGI (SF-268 CNS) [µM]	TGI (SK-MEL-5 melanoma) [µM]	TGI (SNB-19 CNS) [µM]	TGI (TK-10 renal) [µM]	TGI (U251 CNS) [µM]	TGI (COLO 205 colon) [µM]	TGI (MDA-MB-435) [µM]	TGI (NCI/ADR-RES ovarian) [µM]	TGI (SK-MEL-2 melanoma) [µM]	TGI (SK-OV-3 ovarian) [µM]
Cc1cc(C)c2c(c1)C/C(=C\c1ccccc1C(=O)O)C2=O	97.8	> 100	> 100	> 100	> 100	> 100	> 100	> 100	> 100	> 100	> 100	> 100	> 100	> 100					
O=[N+]([O-])/C(C(Cl)=C(Cl)Cl)=C(/Nc1ccccc1)SCc1ccccc1		35.5	29.7	66.1	36.4	37.3	66.8	41.2	49.4	43.4	37	58.4	60.6	34.6	42.4	31.7	31.1	44.7	> 100
O=C1c2cccc3cccc(c23)C2NCCCN12 (stereo unspecified)	> 100	> 100	> 100	> 100	> 100	> 100	> 100	> 100	> 100	> 100	> 100	> 100	> 100	> 100	> 100	> 100	> 100		> 100
Fc1ccc(C(=C2CCN(CCc3ccc4[nH]c(=S)[nH]c4c3)CC2)c2ccc(F)cc2)cc1	14.2	> 20.6	11.4	3.82	15	> 27.8	12.7	23	8.76	25.9	5.74	27.9	4.74	11.3	3.31		37.3	7.95	36.8
COC(=O)C1(C(=O)OC)C/C(C)=C(/C)SCCCS1		> 100	> 100	> 100	> 100	> 100	> 100	> 100	> 100	> 100	> 100	> 100	> 100	> 100	> 100	> 100	> 100	> 100	> 100
C#CC(C)(C)OC(=O)C(=[N+]=[N-])C(C)=O	> 10	> 10	> 10	> 10	> 10	> 10		> 10	> 10	> 10	> 10	> 10	> 10	> 10		> 10		> 10	> 10
CC(C)(C)OC(=O)NC(Cc1ccc(OC(C)(C)C)cc1)C(=O)N[C@H]1CCC[C@H]1C(=O)NC(Cc1ccccc1)C(=O)N1CCCC1C(N)=O (stereo partly specified)		> 100	> 100	> 100	> 100	> 100	> 100	> 100	> 100	> 100	> 100	> 100	> 100	> 100	> 100	> 100	> 100	> 100	> 100
CC1C[C@]2(C)C(=NCCN)Nc3ccccc3[C@@H]2N(C)c2ccccc21 (stereo partly specified)		35	34.5	13.2	21.1	> 100	30.4	27.4	26.6	30.4	26.8	27.7	21.5		5.14	22.7	59	34.3	
CCCCCC(=O)CCCCCCCC(O)CC(=O)OCC (stereo unspecified)	> 100	> 100	> 100	> 100	> 100	> 100		> 100	> 100	> 100	> 100	> 100	> 100	> 100		> 100	> 100		
N#Cc1[nH]c(=S)[nH]c1N	> 100	> 100	> 100	> 100			> 100	> 100	> 100	> 100	> 100	> 100	> 100	> 100	> 100	> 100	> 100	> 100	> 100
COc1ccc(-c2nc(-c3cc4c(ccc5ccccc54)oc3=O)cs2)cc1	> 100	> 100	> 100	> 100	> 100	> 100	> 100	> 100	> 100	> 100	> 100	> 100	> 100		> 100	> 100		> 100	> 100
Cc1nn(C(=O)Cc2ccccc2)c2c1C(c1ccc(Cl)cc1)SC(N)=N2 (stereo unspecified)	> 100	> 100	> 100	> 100	> 100	> 100			> 100	> 100	> 100		> 100		> 100	> 100			> 100
COc1ccc(C2OC(N)=C(C#N)C3=C2CCCC3C)cc1OC (stereo unspecified)	> 100	> 100	> 100	> 100	> 100	> 100		> 100	> 100	> 100	> 100	> 100	> 100	> 100	> 100	> 100	> 100	> 100	> 100
[N-]=[N+]=Nc1cc(=O)n2c3c(cccc13)CCC2	> 100	> 100	> 100	> 100	> 100	> 100	> 100		> 100	> 100			> 100	> 100	> 100	> 100	> 100		
Cn1c(=O)oc2cc(C(O)CN3CCN(Cc4ccccn4)CC3)c(Cl)cc21 (stereo unspecified)	> 100	> 100	> 100	> 100	> 100	> 100	> 100	> 100	> 100	> 100		> 100	> 100	> 100	> 100	> 100	> 100		> 100
O=C(O/C=C\OC1CCCC1(c1ccccc1)c1ccccc1)c1ccccc1 (stereo unspecified)	4.58	5.89	5.72	13.8	6.17	> 31	9.8	31.1	13.6	14.1	23.8	28.9	17.9	12.4	31.5		8.99	15	30.5
c1ccc(NN=C(c2ccccn2)c2ccccn2)nc1	> 100		> 100	> 100	> 100		> 100	> 100	> 100	> 100	> 100	> 100	> 100	> 61.9	> 100	> 100	5.05	> 100	> 100
COc1cc(C(C)=O)cc(C(=O)N(C(C)C)C(C)C)c1[Si](C)(C)C	> 100	> 100	> 100		> 100	> 100	> 100		> 100	> 100	> 100	> 100	> 100	> 100	> 100	> 100		> 100	99.2
N#CC1=C(Nc2ccccc2)SC=C(c2ccccc2)NC1=NCc1ccccc1			> 100		> 100	> 100	> 100	> 100	> 100	> 100	> 100	> 100	> 100	> 100	> 100	> 100	> 100	> 100	> 100
CC(CO)CCNc1ncnc2c1ncn2CCC(=O)OC(C)(C)C (stereo unspecified)		> 100		> 100	> 100	> 100	> 100	> 100	> 100	> 100	> 100	> 100	> 100		> 100	> 100	> 100		> 100
CCCCCCCCCCCCC/C=C/[C@@H](O)[C@H](COC1OC(CO)C(OC2OC(CO)C(O)C(OC3(C(=O)O)CC(O)C(NC(C)=O)C(C(O)C(O)CO)O3)C2O)C(O)C1O)N=[N+]=[N-] (stereo partly specified)		43.4	> 100	58.5	> 100	43.4	> 100	> 100	59.4	41.3	41.6	93.7	> 100	36.1	33.9	> 100	59.9	49.7	78.8
[N-]=[N+]=Nc1cc(=O)[nH]nc1-c1ccccc1	> 100	> 100	> 100	> 100	> 100	> 100	> 100		> 100	> 100			> 100	> 100	> 100	> 100	> 100		> 100
C/C(=N/NC(=S)Nc1ccc(Cl)cc1)c1cccc(/C(C)=N\NC(=S)Nc2ccc(Cl)cc2)n1		> 100	> 100	> 100	48.4	16.7	> 100	> 100	> 100	58.1	18.6	> 100	> 100	60.3	30.7	55.8	91.3	49.2	> 100
Cc1c(C)n(-c2ccccc2)c2nc(S(C)(=O)=O)nc(S(C)(=O)=O)c12		2.29	3.31	3.74	19.4	2.49	3.13	3.63	10.2	31.1	27.1	25.6	3.55	11.2	3.29	3.56	59.9	4.21	34.2
Cc1cn(C2CC(O)C(CO[Si](C)(C)C(C)(C)C)OC2OC(C)C)c(=O)[nH]c1=O (stereo unspecified)	> 100	61.1	> 100	44.1	> 100		> 100	> 100	> 100	> 100	93.9	> 100	> 100	> 100	48.9	> 100	> 100	> 100	
CN(C)CCNC(=O)c1ccc2nc3c(nc2c1)C(=O)c1ccccc1-3	41.3	39.3	> 100	81.5		52.6	> 100	> 100	> 100	> 100	32.1	> 100	> 100	71.5	> 100	48.2			> 100
COC(=O)c1c(C#N)[nH]c(-c2ccsc2)c1C(=O)OC	> 100	> 100		> 100	> 100	> 100		> 100	> 100	> 100	> 100		> 100	> 100	> 100	> 100	> 100	> 100	> 100
COc1ccc(-n2cnn3c(=O)c4cn[nH]c4nc23)cc1	> 10	> 10		> 10		> 10	> 10	> 10	> 10	> 10	> 10	> 10	> 10	> 10		> 10			> 10
